Values after ≈ are worked out from the molar mass of the structure shown.
Legend:
Assay in all cases: In vitro antibacterial evaluation: minimum inhibitory concentration (MIC), broth dilution method
Assay type in all cases: cell-based
Streptococcus sp. = system: Streptococcus sp.
In short: (§1)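 MIC read as lowest drug level preventing visible growth. Organisms at 5×10^5 CFU/mL were exposed to a 64-0.06 μg/mL dilution series in Muller-Hinton II […] following NCCLS broth dilution standard M7-A2.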

Enterococcus sp. = system: Enterococcus sp.
In short: as §1

Staphylococcus sp. = conditions: broth dilution, 18 hours at 35° C.
In short: as §1

Escherichia coli = system: Escherichia coli
In short: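 Inoculum: 5×10^5 CFU/mL. Range: 64-0.06 μg/mL. Medium: Muller-Hinton II […]; NCCLS M7-A2 broth dilution. Endpoint: lowest concentration inhibiting growth. Strains include methicillin-, penicillin- and/or vancomycin-resistant clinical isolates.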

[1] = broth dilution, inoculum 5×10^5 CFU/mL, 18 hours at 35° C.

- MIC Streptococcus agalactiae (GC 4564) (Streptococcus sp.; [1]): <0.12 µg/mL
- MIC Streptococcus pneumoniae (ATCC 6301) (Streptococcus sp.; [1]): <0.12 µg/mL
- MIC Streptococcus pneumoniae (GC 1894) (Streptococcus sp.; [1]): <0.12 µg/mL
- MIC Streptococcus pneumoniae (GC 4565) (Streptococcus sp.; [1]): <0.12 µg/mL
- MIC Streptococcus pyogenes (GC 4563) (Streptococcus sp.; [1]): <0.12 µg/mL
- MIC Streptococcus pneumoniae (ATCC 6301) (Streptococcus sp.; strain ATCC 6301): <0.12 µg/mL
- MIC Streptococcus pneumoniae (GC 1894) (Streptococcus sp.; strain GC 1894): <0.12 µg/mL
- MIC Streptococcus pyogenes (GC 4563) (Streptococcus sp.; strain GC 4563): <0.12 µg/mL
- MIC Streptococcus agalactiae (GC 4564) (Streptococcus sp.; strain GC 4564): <0.12 µg/mL
- MIC Streptococcus pneumoniae (GC 4565) (Streptococcus sp.; strain GC 4565): <0.12 µg/mL
- MIC Enterococcus avium (GC 4558) (Enterococcus sp.; [1]): 1 µg/mL (≈ 0.672 µM)
- MIC Enterococcus faecalis (ATCC 29212) (Enterococcus sp.; [1]): 1 µg/mL (≈ 0.672 µM)
- MIC Enterococcus faecalis (GC 2242) (Enterococcus sp.; [1]): 2 µg/mL (≈ 1.34 µM)
- MIC Enterococcus faecalis (GC 2691) (Enterococcus sp.; [1]): 2 µg/mL (≈ 1.34 µM)
- MIC Enterococcus faecalis (GC 3059) (Enterococcus sp.; [1]): 2 µg/mL (≈ 1.34 µM)
- MIC Enterococcus faecalis (GC 4552) (Enterococcus sp.; [1]): 2 µg/mL (≈ 1.34 µM)
- MIC Enterococcus faecalis (GC 4553) (Enterococcus sp.; [1]): 2 µg/mL (≈ 1.34 µM)
- MIC Enterococcus faecalis (GC 4554) (Enterococcus sp.; [1]): 2 µg/mL (≈ 1.34 µM)
- MIC Enterococcus faecalis (GC 6189) (Enterococcus sp.; [1]): 1 µg/mL (≈ 0.672 µM)
- MIC Enterococcus faecium (GC 2243) (Enterococcus sp.; [1]): 2 µg/mL (≈ 1.34 µM)
- MIC Enterococcus faecium (GC 4556) (Enterococcus sp.; [1]): 1 µg/mL (≈ 0.672 µM)
- MIC Enterococcus faecium (GC 4557) (Enterococcus sp.; [1]): 2 µg/mL (≈ 1.34 µM)
- MIC Enterococcus faecalis (ATCC 29212) (Enterococcus sp.; strain ATCC 29212): 1 µg/mL (≈ 0.672 µM)
- MIC Enterococcus faecalis (GC 2242) (Enterococcus sp.; strain GC 2242): 2 µg/mL (≈ 1.34 µM)
- MIC Enterococcus faecium (GC 2243) (Enterococcus sp.; strain GC 2243): 2 µg/mL (≈ 1.34 µM)
- MIC Enterococcus faecalis (GC 2691) (Enterococcus sp.; strain GC 2691): 2 µg/mL (≈ 1.34 µM)
- MIC Enterococcus faecalis (GC 3059) (Enterococcus sp.; strain GC 3059): 2 µg/mL (≈ 1.34 µM)
- MIC Enterococcus faecalis (GC 4552) (Enterococcus sp.; strain GC 4552): 2 µg/mL (≈ 1.34 µM)
- MIC Enterococcus faecalis (GC 4553) (Enterococcus sp.; strain GC 4553): 2 µg/mL (≈ 1.34 µM)
- MIC Enterococcus faecalis (GC 4554) (Enterococcus sp.; strain GC 4554): 2 µg/mL (≈ 1.34 µM)
- MIC Enterococcus faecium (GC 4556) (Enterococcus sp.; strain GC 4556): 1 µg/mL (≈ 0.672 µM)
- MIC Enterococcus faecium (GC 4557) (Enterococcus sp.; strain GC 4557): 2 µg/mL (≈ 1.34 µM)
- MIC Enterococcus avium (GC 4558) (Enterococcus sp.; strain GC 4558): 1 µg/mL (≈ 0.672 µM)
- MIC Enterococcus faecalis (GC 6189) (Enterococcus sp.; strain GC 6189): 1 µg/mL (≈ 0.672 µM)
- MIC Coagulase Negative Staphylococcus (GC 4547) (Staphylococcus sp.; 5×10^5 CFU/mL): 2 µg/mL (≈ 1.34 µM)
- MIC Coagulase Negative Staphylococcus (GC 4548) (Staphylococcus sp.; 5×10^5 CFU/mL): 0.5 µg/mL (≈ 0.336 µM)
- MIC Coagulase Negative Staphylococcus (GC 4549) (Staphylococcus sp.; 5×10^5 CFU/mL): 0.25 µg/mL (≈ 0.168 µM)
- MIC Coagulase Negative Staphylococcus (GC 4551) (Staphylococcus sp.; 5×10^5 CFU/mL): 0.5 µg/mL (≈ 0.336 µM)
- MIC Coagulase Negative Staphylococcus (GC 6257) (Staphylococcus sp.; 5×10^5 CFU/mL): 0.5 µg/mL (≈ 0.336 µM)
- MIC Staphylococcus aureus (ATCC 29213) (Staphylococcus sp.; 5×10^5 CFU/mL): 1 µg/mL (≈ 0.672 µM)
- MIC Staphylococcus aureus (GC 1131) (Staphylococcus sp.; 5×10^5 CFU/mL): 2 µg/mL (≈ 1.34 µM)
- MIC Staphylococcus aureus (GC 3051) (Staphylococcus sp.; 5×10^5 CFU/mL): 0.5 µg/mL (≈ 0.336 µM)
- MIC Staphylococcus aureus (GC 3053) (Staphylococcus sp.; 5×10^5 CFU/mL): 1 µg/mL (≈ 0.672 µM)
- MIC Staphylococcus aureus (GC 4541) (Staphylococcus sp.; 5×10^5 CFU/mL): 0.5 µg/mL (≈ 0.336 µM)
- MIC Staphylococcus aureus (GC 4542) (Staphylococcus sp.; 5×10^5 CFU/mL): 0.5 µg/mL (≈ 0.336 µM)
- MIC Staphylococcus aureus (GC 4544) (Staphylococcus sp.; 5×10^5 CFU/mL): 2 µg/mL (≈ 1.34 µM)
- MIC Staphylococcus aureus (GC 4545) (Staphylococcus sp.; 5×10^5 CFU/mL): 2 µg/mL (≈ 1.34 µM)
- MIC Staphylococcus aureus-SMITH (GC 4543) (Staphylococcus sp.; 5×10^5 CFU/mL): 0.5 µg/mL (≈ 0.336 µM)
- MIC Staphylococcus aureus (ATCC 29213) (Staphylococcus sp.; strain ATCC 29213): 1 µg/mL (≈ 0.672 µM)
- MIC Staphylococcus aureus (GC 1131) (Staphylococcus sp.; strain GC 1131): 2 µg/mL (≈ 1.34 µM)
- MIC Staphylococcus aureus (GC 3051) (Staphylococcus sp.; strain GC 3051): 0.5 µg/mL (≈ 0.336 µM)
- MIC Staphylococcus aureus (GC 3053) (Staphylococcus sp.; strain GC 3053): 1 µg/mL (≈ 0.672 µM)
- MIC Staphylococcus aureus (GC 4541) (Staphylococcus sp.; strain GC 4541): 0.5 µg/mL (≈ 0.336 µM)
- MIC Staphylococcus aureus (GC 4542) (Staphylococcus sp.; strain GC 4542): 0.5 µg/mL (≈ 0.336 µM)
- MIC Staphylococcus aureus (GC 4544) (Staphylococcus sp.; strain GC 4544): 2 µg/mL (≈ 1.34 µM)
- MIC Staphylococcus aureus (GC 4545) (Staphylococcus sp.; strain GC 4545): 2 µg/mL (≈ 1.34 µM)
- MIC Escherichia coli (ATCC 25922) (Escherichia coli; strain ATCC 25922): 32 µg/mL (≈ 21.5 µM)
- MIC Escherichia coli (GC 4559) (Escherichia coli; strain GC 4559): 16 µg/mL (≈ 10.8 µM)
- MIC Escherichi coli (GC 4560) (Escherichia coli; strain GC 4560): 0.5 µg/mL (≈ 0.336 µM)
SMILES: CC(c1ccccc1)C1NC(=O)CNC(=O)C(CO)NC(=O)C(C(O)C2CNC(=N)N2C2OC(CO)C(O)C(O)C2O)NC(=O)C(C(O)C2CNC(=N)N2)NC(=O)C(Cc2ccc(OC3OC(CO)C(OC4OC5COC(c6ccc(C(=O)c7ccccc7)cc6)OC5C(O)C4O)C(O)C3O)cc2)NC1=O (stereo not drawn) [Example 173, Cyclo[glycyl-β-methylphenylalanyl-O-[4-O-[4,6-O-[4-benzoylbenzylidene)hexopyranosyl]-hexopyranosyl]tyrosyl-3-(2-iminoimidazolidin-4-yl)seryl-3-(3-hexopyranosyl-2-iminoimidazolidin-4-yl)serylseryl]]
- MIC Staphylococcus haemolyticus (GC 4546) (Staphylococcus sp.; 5×10^5 CFU/mL): 1 µg/mL (≈ 0.672 µM)
